According to a melting point compilation (Tetko et al.; mined from patent text by program, amines drawn as free bases though some values may be those of a salt):

melting point [°C] | Compound
56 | FC(F)(F)c1cccc(N2CCN(Cc3ccc(-c4ccccc4)o3)CC2)c1
101 to 105 | CN(C)CCc1cccc(N2C(=O)N(c3ccc(Cl)cc3Cl)Cc3cnc(Nc4ccccc4)nc32)c1
104 to 110 | CCCCC1=NC2(CCCC2)C(=O)N1Cc1ccc(-c2ccccc2S(=O)(=O)NC(=O)c2onc(C)c2C)c(CN2CCC(C)(C)C2=O)c1
104 to 106 | CNC(=O)C(C)(C)CCCCC1(CCCCC(C)(C)C(=O)NC)SCCCS1
177 | Nc1ccc(N2C(=O)c3cccc([N+](=O)[O-])c3C2=O)cc1
154 to 156 | COc1cc(-c2ccc(N)cn2)cc(OC)c1OC
95 to 96 | Cc1ccc(Oc2ccc(-n3cccc3)cc2)c(O)c1
118 to 119 | C#CCOc1nc(-n2ncc(C(=O)OCC)c2N)c(C(F)(F)F)cc1Cl
254 | Cc1cc(-c2cnn3c(C(F)(F)F)cc(-c4ccc(Cl)c(C)c4)nc23)cc(C)n1
131 to 132 | COc1ccc(N2C[C@](C)(CO)OC2=O)cc1
108 to 110 | CCOC(=O)C1C(=O)N(c2ccccc2)c2cc3ccoc3cc21 (stereo unspecified)
38 to 42.8 | Cc1cccnc1-c1ccc(Cl)cc1Cl
242 to 245 | Cc1ccc(S(=O)(=O)Nc2nc(C)c(C(=O)NCc3ccccc3)s2)cc1
98 to 100 | COCc1ccc(OC)c(Br)c1O
> 300 | O=C(O)c1ccccc1-c1nnc(-c2ccc(C(F)(F)F)cc2)s1
130 to 132 | C#CCCCCCCOC(=O)COc1ccc(F)c(C(N)=O)c1F
134 to 136 | CCc1cc(C=O)c2ccc3cccc4ccc1c2c34
120 to 122 | CC(C)C[C@@H](OC(=O)c1cc(Cl)ccn1)C(=O)O
42 | O=[N+]([O-])c1ccc(F)cc1Br
115 to 117 | O=CC(Cc1ccccc1)N1C(=O)c2ccccc2C1=O (stereo unspecified)
217 | N#Cc1cc(F)cc(-c2cc(Br)c3c(c2)C2(CCCCC2)C(=O)N3)c1
171 to 175 | CC(=O)Oc1ccc2c(c1)C(=O)CC1C2CCC2(C)C(OC(C)=O)CCC12 (stereo unspecified)
45 | CC(C)(C)Sc1ssc(=S)c1Cl
159 to 161 | Fc1cccc(-c2ccc3nncn3n2)c1
175 to 176 | CCC(=O)N1Cc2c(-c3noc(C4CC4)n3)ncn2-c2ccccc21

melting point [°C] | Compound
240 | CC(=O)Oc1cc(C(=O)O)cc(C(=O)O)c1
85 to 87 | C=C(C)COc1ccc2c(C)cc(=O)oc2c1C(=O)C=Cc1cccc(OC)c1
267 to 268 | CC(=O)N(C)Nc1ccc(CCn2cnc3cc(-c4ccc(Cl)cc4)sc3c2=O)cc1
> 361 | NC1=NS(=O)(=O)c2sc(Cl)cc2N1
136 to 138 | CC(C)(CCCC(=O)O)c1ccc(O)c(C(=O)O)c1
139 to 140 | CC(=O)c1cc(N(C)C)ccc1NC(=O)c1ccc(OCc2ccccc2)cc1
130 | O=[N+]([O-])c1ccc(O)c(-c2cccs2)c1
80 to 81.5 | COC(=O)CCC(=O)c1ccccc1OCC(O)CNC(C)(C)C (stereo unspecified)
190 to 193 | CONCc1nc2c(N)nc3cc(OCc4ccccc4)ccc3c2n1CC1CCOCC1
235 to 236 | CCSc1cccc2c1C(=O)c1cccc(SCC)c1C2=O
113 to 115 | COc1ccc(-c2nc(Sc3ccc(Cl)c(Cl)c3)[nH]c2-c2ccc(OC)cc2)cc1
172 | CS(=O)(=O)C(=C1CN(C(c2ccccc2)c2ccccc2)C1)c1cc(F)cc(F)c1
45 to 55 | NC(Cc1c[nH]c2ccccc12)C(=O)Nc1c(F)cc(F)cc1F (stereo unspecified)
187 to 189 | O=C1c2cccc(O)c2CCC1CN1CCC(O)(c2ccccc2)CC1 (stereo unspecified)
121 to 122 | Cc1oc(C=Cc2ccc(Cl)cc2)nc1CCl
122 to 123 | N#Cc1c(Br)c(C(F)(F)F)n(COC(=O)C2CC2)c1-c1ccc(Cl)cc1
115 to 117 | COc1ccc(N2C(=O)Cc3ccccc32)cc1
232 to 233 | NC(=O)c1ccc2c(c1)nc(-c1ccc(OCc3ccccc3)cc1)n2C1CCCC1
115 to 117 | COC(=O)c1cccc(Cn2ccc(OCc3ccc(F)cc3F)c(Br)c2=O)c1
159 to 161 | C=C(C)COc1cc(OC)cc(C(=O)OC)c1
162 to 165 | c1ccc2c(c1)NCCc1nncn1-2
115 to 117 | COc1c(C(=O)O)n(Cc2ccccc2)c2ccccc12
176 to 177 | CCc1cc2c(cc1OC(C)=O)CCC1C2CCC2(C)C(C#N)=CCC12 (stereo unspecified)
120 to 123 | N#Cc1cccc(C(CC(=O)c2ccc(F)cc2)CC(=O)c2ccc(F)cc2)c1
155 to 156 | CC(=O)NCC[C@@H]1CCc2ccc3nn(C)c(F)c3c21

melting point [°C] | Compound
191 | CCOc1cc(C)ccc1C1CCN(CCCCNC(=O)c2ccc(-c3ccc(C(F)(F)F)cc3)cc2)CC1
163 to 165 | Cc1cccc(C(O)C2C(c3ccccc3)CC(=O)N2C)c1 (stereo unspecified)
160 | CNc1nc2ccccc2cc1[N+](=O)[O-]
142 to 143 | COc1cc(-c2ncnc(OC)c2Cl)c(F)cc1Cl
116 | CS(=O)(=O)c1ccc(C(=O)c2cnoc2C2CC2)c(Cl)c1
230 | CC(C)c1cc(C(=O)Nc2ccc(C(=O)O)cc2)[nH]c1C(C)C
213 to 215 | COC(=O)C(=CC(=CN(C)C)c1ccc(C)cc1[N+](=O)[O-])[N+](=O)[O-]
256 to 258 | Nc1ccc(-c2cc3[nH]c4ccc(O)cc4c3c3c2C(=O)NC3=O)cc1
223 to 224 | O=Cc1cnc(Nc2n[nH]c3ccc(-c4ncccc4Cl)cc23)s1
110 | Cn1nnnc1CC(=S)NCCc1ccc(OCc2ccccc2)c(OCc2ccccc2)c1
136 to 138 | CCCCOCCOc1ccc(-c2ccc3c(c2)C=C(C(=O)Nc2ccc(CC(=O)c4nccn4CCC)cc2)CCN3CC(C)C)cc1
186 | OC1CSC(Oc2ccc(-c3ccncc3)nc2Cl)C(O)C1O (stereo unspecified)
98 to 100 | FC(F)(F)c1ccc(CN2CC3(COc4ccc(-c5cccnc5)cc43)c3ccccc32)o1 (stereo unspecified)
212 | CC(C)(C)OC(=O)[C@H]1C[C@@H](S(=O)(=O)c2ccccc2)[C@@H](c2ccccc2)N1C(=O)CNC(=O)Nc1cccc(C(=O)OCc2ccccc2)c1 (racemic)
95 to 98 | CC(=O)SCC(Cc1ccccc1)C(=O)Nc1cc(C(=O)O)ccc1CN1CCCC1 (stereo unspecified)
212 to 214 | Cc1oc(-c2ccc(C(F)(F)F)cc2)nc1-c1ccc2c(Br)c(OCC(=O)O)ccc2c1
132 to 135 | CCc1cc2c(Sc3nnc(C)s3)ncnc2s1
101 to 103 | O=C(O)CSc1nccn1Cc1cc(F)cc(F)c1
209 to 210 | NC1=CC(=O)CC(c2cccc(Cl)c2Cl)C1 (stereo unspecified)
196 | Cc1ccc(NC(=O)c2cc(C#N)cc(C)n2)nc1
208 to 209 | CC(=O)c1ccc(NC(=O)N2CCN(c3ncnc4c(Cl)cccc34)CC2)cc1
193 to 196 | Oc1ccc2c(c1)C[C@H](O)[C@H](O)C2 (relative stereo)
178 to 180 | C[C@]1(N2Cc3c(OCc4ccc(CN5CCOCC5)cc4)cccc3C2=O)CCC(=O)NC1=O
122 to 123 | CCSc1cc(C)nc(SCC)c1NC(=O)CCCSc1nc2c(C)c(Cl)cc(C(C)C)c2o1
81 to 84 | CN(N)C(=O)NCC(F)F

melting point [°C] | Compound
166 to 168 | CC(C)NS(=O)(=O)c1ccc(S(N)(=O)=O)cc1
214 to 216 | CONS(=O)(=O)c1ccc(C(=O)C=Cc2cc(-c3cc4ccccc4n3C)c(OC)cc2OC)cc1
32 to 33 | CCCCc1ccc(CCCCCCC(=O)O)cc1
> 310 | Nc1nc2ncn([C@H]3C=C[C@@H](O)C3)c2c(=O)[nH]1 (racemic)
187 to 189 | CCOc1cc2c(c3c1OC(C)(C)C3)C(c1ccccc1)=NC(C)(CN1C(=O)c3ccccc3C1=O)C2 (stereo unspecified)
102 to 104 | Nc1ccc2nc(CN3CCCC3)ccc2c1
189 to 191 | CCOC(=O)c1cn(C2CC2)c2cc(F)c(F)cc2c1=O
263 to 264 | CC(C)(C)OC(=O)N1CCC(NC(=O)c2ccc(-n3cccn3)cc2)C1 (stereo unspecified)
228 | Cn1cc(C[C@H]2NC(=O)[C@@H](CCC(=O)O)NC2=O)c2ccccc21
128 to 130 | COC(=O)c1nc(NC(C)=O)ccc1Oc1cc(OC)cc(OC)n1
159 to 161 | C=Cc1ccc(C(=O)NC(C#N)n2cccn2)cc1 (stereo unspecified)
49 to 51 | O=C(CCc1ccccc1)CN1C(=O)CC1S(=O)c1ccccc1 (mixture of isomers)
95 to 100 | COc1ccc(Cn2ncnc2CO)cc1
252 | CCOc1ccc2c(c1)n(C1CCCCC1)c(=O)n2S(=O)(=O)c1ccc(C(=O)NC(C)(C)C)cc1OC
234 to 236 | CSc1ccc(-c2nc(SC)c(C#N)c(=O)n2-c2ccc(C)c(C)c2)cc1
184 to 186 | COC1=CC2(C)CCc3c(OC)ccc(OC)c3C2=CC1=O (stereo unspecified)
208 to 210 | Cn1cc(-c2ccncn2)cc(Br)c1=O
268 to 270 | CCc1nc(NC(=O)C2=C(O)c3ccc4ccccc4c3S(=O)(=O)N2)sc1C
120 to 137 | N=C(N)NCCC[C@H](NC(=O)CNC(=O)C(CS)Cc1ccccc1)C(=O)O (stereo partly specified)
143 to 144 | CC(C)(C)OC(=O)CN1CCSC1=NC#N
84 to 85 | CC(C)OCCNC(=O)c1cccc(-c2cccc3cc(Cc4cc(F)cc(Cl)c4)sc23)c1
98 to 101 | CCC(=O)NCCC1CCc2cc(Br)c3c(c21)CC(C)(C)O3 (stereo unspecified)
135 to 138 | CCNC(C)c1cc(S(N)(=O)=O)sc1S(=O)(=O)CC (stereo unspecified)

Compound | melting point [°C]
CN1Cc2c(CO)ncn2-c2ccc(F)cc2C1=O | 221 to 223
Cc1cc(C2=NOC(c3cc(Cl)cc(Cl)c3)(C(F)(F)F)C2)ccc1C(=O)NC1(Cl)N=CC=CN1 (stereo unspecified) | 231 to 234
CN1CCC[C@H]1Cc1cc2cccnc2[nH]1 | 130 to 131
